Test results taken from EP0636633A1, “A triterpenoid saponin, extraction thereof and use to treat or prevent diabetes mellitus” (KOWA CHEMICAL INDUSTRIES CO., LTD., priority 1993, dated 1995).

Key:
[1] = test system: DDF male mice; assay: Acute toxicity test, forced oral administration; details: for Number of dead animals: mouse, in vivo, po
Protocol: An acute toxicity test was effected by the following procedure.
Use was made of DDF male mice having a weight of 25 g, and each group consisted of 10 animals. The animals were ingested a solid feed (for breeding) while they freely got tap water as drinking water.
The triterpenoid saponin was suspended in 1% CMC physiological saline to a concentration of 200 mg/ml.
The test substance was administered with a probe by forced oral administration. The dose was 5000 mg/kg for one group and 2500 mg/kg for another group. Test period was 7 days. After the administration, the animals were continuously observed for 3 hr, and, thereafter, observation was effected of general symptoms every 6 hr.

[2] = test system: sweet taste responses; assay: sweet taste response inhibition test; type: in vivo; details: for taste of Aqueous Sucrose Solution, panelists ①②③④⑤: after 0.08% sample solution kept in mouth 2 min
Protocol: A sweet taste response inhibition test was effected for the triterpenoid saponin of the present invention and Gymnemic acid 1 and Gymnemic acid 2 obtained from Gymnema sylvestre, R. Br. known to have an inhibitory effect on glucose adsorption.
The triterpenoid saponin prepared in Example 1 and Gymnemic acid 1 and Gymnemic acid 2 were dissolved in a 0.01 M/liter aqueous sodium bicarbonate (NaHCO₃) solution to prepare a 0.08% triterpenoid saponin solution, a 0.08% Gymnemic acid 1 solution and a 0.08 % Gymnemic acid 2 solution.
Separately, 0.1 M/liter, 0.2 M/liter, 0.3 M/liter, 0.4 M/liter and 0.5 M/liter aqueous sucrose solutions were previously prepared. The sweet taste response inhibition test was effected according to the following procedure.
• 1) 5 ml of the triterpenoid saponin solution or Gymnemic acid 1 or 2 solution was kept in mouth so that it was spread in the whole mouth. • 2) 2 min after that, the sample solution was spit out, and the mouth was sufficiently rinsed with distilled water. • 3) The above-described aqueous sucrose solutions were successively kept in the mouth in the order of concentration from the lowest to the highest, and the sucrose concentration of the solution which was first sweet to the taste was recorded.

## CC1(C)CC[C@]2(CO)[C@@H](O)C[C@]3(C)C(=CC[C@@H]4[C@@]5(C)CC[C@H](O[C@@H]6O[C@H](C(=O)O)[C@@H](O)[C@H](O)[C@H]6O[C@@H]6O[C@H](CO)[C@@H](O)[C@H](O)[C@H]6O)C(C)(C)[C@@H]5CC[C@]43C)[C@@H]2C1 [triterpenoid saponin, (3β,16β)-16,28-dihydroxyolean-12-en-3-yl-2-O-β-D-glucopyranosyl-β-D-glucopyranosiduronic acid]
[1]; Dose 2500 mg/kg, oral, 7 days
  Other general symptoms: Do.
[1]; Dose 5000 mg/kg, oral, 7 days
  Other general symptoms: None of the animals exhibited any abnormal symptom.
[1]; acute toxicity test, oral, mice, 7 days
  toxicity: no toxicity was observed
[1]; 2500 mg/kg
  Number of dead animals: 0
[1]; 5000 mg/kg
  Number of dead animals: 0
[2]; 0.08% sample solution
  inhibitory effect on the sweet taste responses: no inhibitory effect on the sweet taste responses
[2]; sucrose 0.1 M/liter
  taste of Aqueous Sucrose Solution, panelists ①②③④⑤: Δ○○Δ○
[2]; sucrose 0.2 M/liter
  taste of Aqueous Sucrose Solution, panelists ①②③④⑤: ○○○○○
